The values below come from patent US11384060B2, “Amide compounds and use thereof” (ALPHALA CO., LTD., priority 2017, dated 2022).

For one assay, the target named is T1, glucagon receptor (GCGR) (Homo sapiens, UniProt P47871).
T1 construct: expressed in transfected cells; host or cells: CHO-K1 cells overexpressing GCGR (membrane fractions)
The assay is described as follows: I125-glucagon binding assay (competition, GCGR membrane fractions). Summed up: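 Membranes from CHO-K1 cells overexpressing GCGR, 7.5 μg/well in 50 mM Tris pH 7.4 with 0.5% BSA, were preincubated 5 min with serially diluted compounds, then given 0.0625 nM final I^125-glucagon for 30 min at 25° C. Bound label was filtered on PEI-coated GF/B and counted; IC50 by non-linear regression.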

Assay [1] deals with T2, glucagon receptor (GCGR) overexpressed CHO-K1 cells or human primary hepatocytes (Homo sapiens, UniProt P47871).
T2 construct: expressed in transfected cells; host or cells: GCGR overexpressed CHO-K1 cells or human primary hepatocytes (endogenous receptor)
T2 sequence (P47871 26-477): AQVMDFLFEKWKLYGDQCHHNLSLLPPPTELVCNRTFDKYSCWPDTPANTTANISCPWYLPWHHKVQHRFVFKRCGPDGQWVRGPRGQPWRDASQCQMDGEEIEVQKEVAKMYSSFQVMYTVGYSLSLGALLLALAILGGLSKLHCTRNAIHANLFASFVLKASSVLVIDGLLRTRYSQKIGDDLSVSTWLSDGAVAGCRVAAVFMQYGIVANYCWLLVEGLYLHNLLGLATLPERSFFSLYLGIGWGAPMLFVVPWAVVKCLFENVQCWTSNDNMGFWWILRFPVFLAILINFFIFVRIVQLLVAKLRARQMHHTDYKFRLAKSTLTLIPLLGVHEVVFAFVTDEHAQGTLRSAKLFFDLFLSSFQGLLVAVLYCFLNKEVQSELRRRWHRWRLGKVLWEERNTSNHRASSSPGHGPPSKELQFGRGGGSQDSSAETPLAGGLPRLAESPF
Put plainly: Glucagon cAMP inhibition assay (Cisbio cAMP Dynamic 2 HTRF). The format is cell-based. An outline of the steps: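 GCGR-overexpressing CHO-K1 cells or human primary hepatocytes in HBSS with 0.1% BSA and 800 nM IBMX, pre-incubated 30 min with serially diluted compounds (1% DMSO final), then stimulated 30 min at room temperature with glucagon at its EC50. cAMP measured by HTRF after 60 min lysis; IC50 by non-linear regression.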
(TR-FRET usually uses a lanthanide donor and a delayed reading to cut background.)

Where [2] appears, read: competition with I125-glucagon 0.0625 nM, membrane fractions of GCGR overexpressed CHO-K1 cells.
[3] abbreviates: inhibition of glucagon (EC50 concentration) induced cAMP production.

Like-named read-outs stand apart in the source and are kept apart here. Some results are limits rather than exact numbers.

T1 sequence (P47871 26-477): as above

By IC50 is commonly meant the concentration at which inhibition is half-maximal. Low readings indicate higher potency, high ones lower potency. On glucagon receptor (GCGR), `Cc1nc(OC[C@H](CC(C)C)Nc2ccc(C(=O)NCCC(=O)O)cc2)ccc1-c1ccc(Cl)cc1Cl` [Compound 18-8, (S)-3-(4-((1-((5-(2,4-dichlorophenyl)-6-methylpyridin-2-yl)oxy)-4-methylpentan-2-yl)amino)benzamido)propanoic Acid] had a concentration for half-maximal inhibition (IC50) of 49 nM. In assay [1], the “IC50 cAMP” value stood at 122.5 nM.

On glucagon receptor (GCGR) (setting [2]), `CCCC[C@@H](COc1ccc(-c2cc3ccccc3o2)c(Cl)c1)Nc1ccc(C(=O)NCc2nnn[nH]2)cc1` [Compound 3-11, (S)—N-((1H-tetrazol-5-yl)methyl)-4-((1-(4-(benzofuran-2-yl)-3-chlorophenoxy)hexan-2-yl)amino)benzamide] displayed an IC50 of 149 nM. In assay [1] (setting [3]), the “IC50 cAMP” value turned out to be 672.8 nM.

Consider `CC(C)[C@H](COc1ccc(-c2cc3ccccc3o2)cc1)Nc1ccc(C(=O)NCCC(=O)O)cc1` [Compound 1-34, (R)-3-(4-((1-(4-(benzofuran-2-yl)phenoxy)-3-methylbutan-2-yl)amino)benzamido) propanoic Acid], for which the IC50 at glucagon receptor (GCGR) (setting [2]) is 113 nM. For the same compound, in assay [1] (setting [3]), the “IC50 cAMP” value stood at 238.7 nM.

In the case of `CC(C)[C@@H](COc1ccc(-c2cc3ncccc3o2)cc1)Nc1ccc(C(=O)NCCC(=O)O)cc1` [Compound 1-41, (S)-3-(4-((1-(4-(furo[3,2-b]pyridin-2-yl)phenoxy)-3-methylbutan-2-yl)amino)benzamido)propanoic Acid], the IC50 at glucagon receptor (GCGR) (setting [2]) came to 227 nM. In assay [1] (setting [3]), the “IC50 cAMP” value is listed as 1403 nM.

For the compound `CC(C)[C@@H](COc1cc(F)c(-c2cc3ccccc3o2)c(F)c1)Nc1ccc(C(=O)NCCC(=O)O)cc1` [Compound 7-1, (S)-3-(4-((1-(4-(benzofuran-2-yl)-3,5-difluorophenoxy)-3-methylbutan-2-yl)amino)benzamido)propanoic Acid], at glucagon receptor (GCGR) (setting [2]), the 50% inhibitory concentration (IC50) came to 93 nM. Also, in assay [1] (setting [3]), the “IC50 cAMP” value was found to be 495 nM.

In turn, `CC(C)[C@@H](Cc1noc(-c2ccc(C(C)(C)C)cc2)n1)Nc1ccc(C(=O)NCCC(=O)O)cc1` [Compound 21-3, (R)-3-(4-((1-(5-(4-(tert-butyl)phenyl)-1,2,4-oxadiazol-3-yl)-3-methylbutan-2-yl)amino)benzamido)propanoic Acid] returned an IC50 on glucagon receptor (GCGR) (setting [2]) of 1130 nM. Besides, the “IC50 cAMP” value in assay [1] (setting [3]) was 5436 nM.

Take `CC(C)(C)c1nnc(-c2ccc(OC[C@@H](Nc3ccc(C(=O)NCCC(=O)O)cc3)c3ccc(-c4ccc(Cl)cc4Cl)cc3)nc2)o1` [Compound 15-34, (S)-3-(4-((2-((5-(5-(tert-butyl)-1,3,4-oxadiazol-2-yl)pyridin-2-yl)oxy)-1-(2′,4′-dichloro-[1,1′-biphenyl]-4-yl)ethyl)amino)benzamido)propanoic Acid]: the IC50 on glucagon receptor (GCGR) was found to be 3000 nM. In addition, the “IC50 cAMP” value in assay [1] is 4558 nM.

Regarding `CCCC[C@@H](COc1ccc(-c2ccc(Cl)cc2Cl)cn1)Nc1ccc(C(=O)NCCC(=O)O)cc1` [Compound 15-24, (S)-3-(4-((1-((5-(2,4-dichlorophenyl)pyridin-2-yl)oxy)hexan-2-yl)amino)benzamido)propanoic Acid], on glucagon receptor (GCGR), the half-maximal inhibitory concentration (IC50) worked out at 301 nM. The “IC50 cAMP” value in assay [1] worked out at 293.9 nM.

For the compound `CC(C)[C@@H](COc1ccc(-c2ccc(C(F)(F)F)cc2F)c(F)c1)Nc1ccc(C(=O)NCCS(=O)(=O)O)cc1` [Compound 8-2, (S)-2-(4-((1-((2,2′-difluoro-4′-(trifluoromethyl)-[1,1′-biphenyl]-4-yl)oxy)-3-methylbutan-2-yl)amino)benzamido)ethane-1-sulfonic Acid], the 50% inhibitory concentration (IC50) at glucagon receptor (GCGR) (setting [2]) worked out at 1710 nM. The “IC50 cAMP” value in assay [1] (setting [3]) is 12144 nM.

With `CC[C@H](C)[C@@H](COc1ccc(-c2cc3ccccc3o2)c(C)n1)Nc1ccc(C(=O)NCCC(=O)O)cc1` [Compound 18-4, 3-(4-(((2S,3S)-1-((5-(benzofuran-2-yl)-6-methylpyridin-2-yl)oxy)-3-methylpentan-2-yl)amino)benzamido)propanoic Acid], the IC50 on glucagon receptor (GCGR) was found to be 203 nM. Also, the “IC50 cAMP” value in assay [1] came to 151 nM.

Compound `O=C(O)CCNC(=O)c1ccc(N[C@H](Cc2ccc(-c3cc4ccccc4o3)cc2)C(=O)Nc2cc(F)cc(F)c2)cc1` [Compound 24-24, (R)-3-(4-((3-(4-(benzofuran-2-yl)phenyl)-1-((3,5-difluorophenyl)amino)-1-oxopropan-2-yl)amino)benzamido)propanoic Acid] gave a concentration for half-maximal inhibition (IC50) on glucagon receptor (GCGR) of 1210 nM. For the same compound, in assay [1], the “IC50 cAMP” value is 214 nM.

For the compound `CC[C@H](C)[C@@H](COc1ccc(-c2ccc(C(F)(F)F)cc2F)c(C)n1)Nc1ccc(C(=O)NCCC(=O)O)cc1` [Compound 18-6, 3-(4-(((2S,3S)-1-((5-(2-fluoro-4-(trifluoromethyl)phenyl)-6-methylpyridin-2-yl)oxy)-3-methylpentan-2-yl)amino)benzamido)propanoic Acid], at glucagon receptor (GCGR), the IC50 is 179 nM. The “IC50 cAMP” value in assay [1] is listed as 204 nM.

For `Cc1cc(OC[C@@H](Cc2ccccc2)Nc2ccc(C(=O)NCCC(=O)O)cc2)cc(C)c1-c1ccc(OC(F)(F)F)cc1` [Compound 2-2], at glucagon receptor (GCGR) (setting [2]), the IC50 was determined as 378 nM. The “IC50 cAMP” value in assay [1] (setting [3]) is given as 474.8 nM.

`COC(=O)CCNC(=O)c1ccc(N[C@H](COc2ccc(-c3nc4ccccc4s3)cc2)C(C)C)cc1` [Compound 1-31, Methyl (S)-3-(4-((1-(4-(benzo[d]thiazol-2-yl)phenoxy)-3-methylbutan-2-yl)amino)benzamido)propanoate]: the IC50 at glucagon receptor (GCGR) (setting [2]) worked out at 5770 nM. In assay [1] (setting [3]), the “IC50 cAMP” value is listed as 83 nM.

For the compound `CC(C)C[C@@H](COc1ccc(-c2ccc(C(F)(F)F)cc2)nn1)Nc1ccc(C(=O)NCCC(=O)O)cc1` [Compound 17-7, (S)-3-(4-((4-methyl-1-((6-(4-(trifluoromethyl)phenyl)pyridazin-3-yl)oxy)pentan-2-yl)amino)benzamido)propanoic Acid], the half-inhibitory concentration (IC50) on glucagon receptor (GCGR) (setting [2]) worked out at 1320 nM. In assay [1] (setting [3]), the “IC50 cAMP” value turned out to be 7647 nM.

`CC(C)[C@@H](COc1ccc(-c2cc3ccccc3o2)cn1)Nc1ccc(C(=O)NCCC(=O)O)cc1` [Compound 15-3, (S)-3-(4-((1-((5-(benzofuran-2-yl)pyridin-2-yl)oxy)-3-methylbutan-2-yl)amino)benzamido)propanoic Acid] came in with an IC50 on glucagon receptor (GCGR) of 51 nM. In addition, in assay [1], the “IC50 cAMP” value is 111 nM.

`CC[C@H](C)[C@@H](COc1nnc(-c2ccc(C(F)(F)F)cc2F)o1)Nc1ccc(C(=O)NCCC(=O)O)cc1` [Compound 22-1, 3-(4-(((2S,3S)-1-((5-(2-fluoro-4-(trifluoromethyl)phenyl)-1,3,4-oxadiazol-2-yl)oxy)-3-methylpentan-2-yl)amino)benzamido)propanoic Acid]: the IC50 on glucagon receptor (GCGR) was found to be 62 nM. Moreover, the “IC50 cAMP” value in assay [1] is recorded as more than 30000 nM.

`CC(C)[C@H](Nc1ccc(C(=O)NCCC(=O)O)cc1)C(=O)Nc1ccc(-c2cc3ccccc3o2)cc1` [Compound 23-33, (S)-3-(4-((1-((4-(benzofuran-2-yl)phenyl)amino)-3-methyl-1-oxobutan-2-yl)amino)benzamido)propanoic Acid] registered an IC50 at glucagon receptor (GCGR) of 1010 nM. Further, in assay [1], the “IC50 cAMP” value was 1633 nM.

Regarding `CC(C)[C@@H](COc1cnc(-c2ccc(C(F)(F)F)cc2Cl)nc1)Nc1ccc(C(=O)NCCC(=O)O)cc1` [Compound 12-4], on glucagon receptor (GCGR) (setting [2]), the half-inhibitory concentration (IC50) was 539 nM. Besides, in assay [1] (setting [3]), the “IC50 cAMP” value is 9828 nM.

On to `CCCC[C@@H](COc1ccc(-c2ccc(C(F)(F)F)cc2F)cn1)Nc1ccc(C(=O)NCCC(=O)O)cc1` [Compound 15-26, (S)-3-(4-((1-((5-(2-fluoro-4-(trifluoromethyl)phenyl)pyridin-2-yl)oxy)hexan-2-yl)amino)benzamido)propanoic Acid], for which the half-inhibitory concentration (IC50) at glucagon receptor (GCGR) was 228 nM. In assay [1], the “IC50 cAMP” value was found to be 206.6 nM.
